Test results from patent US9023836B2, “Use of substituted heterocyclic compounds to control sea lice on fish” (Novartis Tiergesundheit AG, priority 2010, dated 2015).
Values after ≈ are worked out from the molar mass of the structure shown.

Key:
[1] = tested on: Lepeophtheirus salmonis copepodids; test: Activity in vitro against Lepeophtheirus salmonis at copepodid stage; conditions: 1 hour contact in sea water, then 48 h in untreated sea water, no movement over 80 seconds, read-out: efficacy (EC80)
Description: Activity in Vitro Against Lepeophtheirus Salmonis at Copepodid Stage Sea lice copepodids were used to seed a 96-well plate containing the test substances to be evaluated for antiparasitic activity. Each compound was tested by serial dilution in order to determine its minimal effective dose (MED). Copepodids were left in contact with the test compound diluted in sea water for 1 hour. They were then incubated in untreated sea water for 48 h. Efficacy against sea lice was then confirmed if no copepodid moved over a period of 80 seconds.

[2] = tested on: Lepeophtheirus salmonis on Atlantic salmon; test: In vivo activity against Lepeophtheirus salmonis on Atlantic salmon using in-feed application; conditions: medicated pellets 9.8 mg/kg/day, 7 consecutive days
Description: In Vivo Activity of Compound 8 Against Lepeophtheirus Salmonis on Atlantic Salmon using In-Feed Application
Compound 8 was administered orally via medicated fish pellets at an average dose of 9.8 mg/kg/day during 7 consecutive days to 50 Atlantic salmon infected with lice (Lepeophtheirus salmonis). The medicated pellets were prepared by dry top coating of the compound 8, formulated as feed additive as described above, and over-oiling to seal (1% fish oil). Fish had been previously infected by exposure to louse. The number of copepodids used was selected to provide an settlement rate of at least 10 lice per fish. Treatment was done when lice had developed to pre-adult II and adult stages. Sea louse numbers were assessed 34 days post treatment. A second challenge using louse copepodids took place at 41 days post treatment. Sea louse numbers were assessed when they had developed to adults.
(§1) All fish were anaesthetized with 2 phenoxy-ethanol and examined for louse settlement under a dissecting microscope. Differences in sea louse counts between each test group and the relevant control group (non treated) infested at the same time as the test group were assessed using Mann-Whitney Tests. Efficacy was calculated using the formula: % Efficacy=100−(100×mean of treatment group/mean of control).

[3] = tested on: Lepeophtheirus salmonis on Atlantic salmon; test: In vivo activity against Lepeophtheirus salmonis on Atlantic salmon using bath treatment application; conditions: bath 2 ppm in salt water, 60 minutes
Description: In Vivo Activity of Compound 8 Against Lepeophtheirus Salmonis on Atlantic Salmon using Bath Treatment Application Bath containing compound 8 at 2 ppm in salt water was prepared by dilution of a solution of compound 8 in DMSO. Fish (Atlantic salmons) had been previously infected with 2 cohorts of lice to ensure the presence of chalimus and motile lice at the time of treatment. This test was performed on thirty fish per group and was compared to 30 control fish that were bathed in sea water containing DMSO only (at an inclusion rate equal to that used in the test group using the most DMSO as solvent), for 60 minutes. The fish were then transferred to holding tanks and sampled for lice numbers at 3 and 10 days post treatment. Ten fish per group were anaesthetized with 2 phenoxy-ethanol and examined for louse settlement under a dissecting microscope. Differences in sea louse counts between each test group and the relevant control group (non treated) infested at the same time as the test group were assessed using Mann-Whitney Tests. Efficacy was calculated using the formula: % Efficacy=100−(100×mean of treatment group/mean of control).

[4] = tested on: Lepeophtheirus salmonis adult lice; test: In vitro activity against Lepeophtheirus salmonis at adult stage; conditions: at 1 ppm; 60 minutes exposure, survival at 24 hours post exposure, 12° C.
Description: In Vitro Activity of Compound 8 Against Lepeophtheirus Salmonis at Adult Stage
Ten mixed sex adult lice (non gravid, Lepeophtheirus salmonis) were removed from fish and exposed to a test compound at several dilution in filtered sea water and placed in an incubator at 12° C. in dark conditions. After 60 minutes exposure, lice were rinsed in clean sea water and transferred to petri dishes containing 100 mL of sea water. They were then returned to the incubator. Lice were examined for survival at 24 hours post exposure (moribund lice considered as dead)

[5] = tested on: Lepeophtheirus salmonis on Atlantic salmon; test: In vivo activity against Lepeophtheirus salmonis on Atlantic salmon using injectable application
Description: In Vivo Activity of Compound 8 Against Lepeophtheirus Salmonis on Atlantic Salmon using Injectable Application
Twenty Atlantic salmon (mean weights at about 100 g) were anaesthetized with 2-phenoxy ethanol, individually weighed and injected with 0.2 ml of compound 8 formulated in PEG300 at 2.5%, corresponding to a 50 mg/kg dose. Each treatment was administered by single IP injection and fish were then transferred to a flow through tank, the temperature of which was maintained between 6 and 14° C. Louse infection was by exposure of experimental fish to louse copepodids freshly hatched from Lepeophtheirus salmonis egg strings. The number of copepodids used was selected to provide a settlement rate of at least 10 lice per fish. Sea louse numbers were assessed when they had developed to chalimus stage III/IV or later on if needed.
as §1, with “Ten” for “All”, “fish per group” for “fish”

[6] = 50 mg/kg IP, 14 days post treatment, Chalimus III
[7] = 50 mg/kg IP, 41 days post treatment, Chalimus III
[8] = 50 mg/kg IP, 83 days post treatment, Chal III/IV
[9] = 50 mg/kg IP, 127 days post treatment, Chal III/IV
[10] = 50 mg/kg IP, 169 days post treatment, Chal III/IV
[11] = 50 mg/kg IP, 217 days post treatment, Adults
[12] = 50 mg/kg IP, 217 days post treatment, Chal III/IV
[13] = 50 mg/kg IP, 217 days post treatment, PAI & PAII
[14] = 50 mg/kg IP, 252 days post treatment, Chal IV/PAI

Work on `Cc1cc(C2=NOC(c3cc(Cl)cc(Cl)c3)(C(F)(F)F)C2)ccc1-n1cncn1` (centres unmarked) [Example 1] yielded an EC80 [1] of 0.05 µg/mL (≈ 0.113 µM).

`Cc1cc(C2=NOC(c3cc(Cl)cc(Cl)c3)(C(F)(F)F)C2)ccc1C(=O)NCc1ccccn1` (centres unmarked) [Example 2] showed an EC80 [1] of 0.05 µg/mL (≈ 0.0984 µM).

`Cc1cc(C2=NOC(c3cc(Cl)cc(Cl)c3)(C(F)(F)F)C2)ccc1C(=O)NCC(F)(F)F` (centres unmarked) [Example 3] showed an EC80 [1] of 0.05 µg/mL (≈ 0.1 µM).

With `N#Cc1cc(C2=NOC(c3cc(Cl)cc(Cl)c3)(C(F)(F)F)C2)ccc1-n1cncn1` (centres unmarked) [Example 6] the EC80 [1] was 0.05 µg/mL (≈ 0.111 µM).

`O=C(NCc1ccccn1)c1ccc(C2=NOC(c3cc(Cl)cc(Cl)c3)(C(F)(F)F)C2)c2ccccc12` (centres unmarked) [Example 7] showed an EC80 [1] of 0.05 µg/mL (≈ 0.0919 µM).

For `O=C(NCC(F)(F)F)c1ccc(C2=NOC(c3cc(Cl)cc(Cl)c3)(C(F)(F)F)C2)c2ccccc12` (centres unmarked) [Example 8], the “efficacy as a curative treatment (first challenge)” value ([2]; lice assessed 34 days post treatment) was 100%, the “efficacy on the challenge performed 41 days post treatment” value ([2]; second challenge with copepodids, assessed at adult stage) was 100% and the EC80 [1] was 0.05 µg/mL (≈ 0.0934 µM). The “effective against adult sea lice” value ([3]; 3 days post treatment) was 100%, the “effective against developing chalimus stage” value ([3]; by 10 days post treatment) was 96% and the Efficacy [4] was “more than 90%”. For the same compound, the Efficacy [5, 6] was 99.5%, the “Mean lice count of treated fish ± s.d.” value [5, 6] was 0.1 ± 0.3 and the Efficacy [5, 7] was 100%. The “Mean lice count of treated fish ± s.d.” value [5, 7] was 0.0 ± 0.0, the Efficacy [5, 8] was 100% and the “Mean lice count of treated fish ± s.d.” value [5, 8] was 0.0 ± 0.0. The Efficacy [5, 9] was 100%, the “Mean lice count of treated fish ± s.d.” value [5, 9] was 0.0 ± 0.0 and the Efficacy [5, 10] was 100%. For the same compound, the “Mean lice count of treated fish ± s.d.” value [5, 10] was 0.0 ± 0.0, the Efficacy [5, 11] was 97.3% and the “Mean lice count of treated fish ± s.d.” value [5, 11] was 0.5 ± 1.0. For the same compound, the Efficacy [5, 12] was 74.3%, the “Mean lice count of treated fish ± s.d.” value [5, 12] was 22.9 ± 27.7 and the Efficacy [5, 13] was 94.6%. The “Mean lice count of treated fish ± s.d.” value [5, 13] was 4.5 ± 5.8, the Efficacy ([5]; 50 mg/kg IP, 252 days post treatment, Adults) was 84.9% and the Efficacy [5, 14] was 29.8%. The “Mean lice count of treated fish ± s.d.” value [5, 14] was 21.4 ± 15.5 and the Efficacy ([5]; single IP injection 50 mg/kg in PEG300, for up to 7 months post treatment) was “more than 90%”.

`COC(=O)CNC(=O)c1ccc(C2=NOC(c3cc(Cl)cc(Cl)c3)(C(F)(F)F)C2)c2ccccc12` (centres unmarked) [Example 10] showed an EC80 [1] of 0.05 µg/mL (≈ 0.0952 µM).

With `O=C(CNC(=O)c1ccc(C2=NOC(c3cc(Cl)cc(Cl)c3)(C(F)(F)F)C2)c2ccccc12)NCC(F)(F)F` (centres unmarked) [Example 11] the EC80 [1] was 0.05 µg/mL (≈ 0.0844 µM).

In the case of `CN(C)/C=N/C(=O)c1ccc(C2=NOC(c3cc(Cl)cc(Cl)c3)(C(F)(F)F)C2)c2ccccc12` (centres unmarked) [Example 12], the EC80 [1] is reported as 0.05 µg/mL (≈ 0.0984 µM).

Work on `CON/C=N\C(=O)c1ccc(C2=NOC(c3cc(Cl)cc(Cl)c3)(C(F)(F)F)C2)c2ccccc12` (centres unmarked) [Example 13] yielded an EC80 [1] of 0.05 µg/mL (≈ 0.098 µM).

`Cc1cc(C2=NOC(c3cc(Cl)cc(Cl)c3)(C(F)(F)F)C2)ccc1C(=O)NCC(=O)NCC(F)(F)F` (centres unmarked) [Example 14] was tested, and the EC80 [1] was 0.05 µg/mL (≈ 0.0899 µM).

With `CON/C=N/C(=O)c1ccc(C2=NOC(c3cc(Cl)cc(Cl)c3)(C(F)(F)F)C2)cc1C` (centres unmarked) [Example 16] the EC80 [1] was 0.05 µg/mL (≈ 0.105 µM).

Work on `CCC(=O)NCc1ccc(C2=NOC(c3cc(Cl)cc(Cl)c3)(C(F)(F)F)C2)cc1C` (centres unmarked) [Example 17] yielded an EC80 [1] of 0.05 µg/mL (≈ 0.109 µM).

For `COCCC(=O)NCc1ccc(C2=NOC(c3cc(Cl)cc(Cl)c3)(C(F)(F)F)C2)cc1C` (centres unmarked) [Example 18], the EC80 [1] was 0.05 µg/mL (≈ 0.102 µM).

Work on `Cc1cc(C2=NOC(c3cc(Cl)cc(Cl)c3)(C(F)(F)F)C2)ccc1CNC(=O)C1CC1` (centres unmarked) [Example 24] yielded an EC80 [1] of 0.05 µg/mL (≈ 0.106 µM).

With `CCCC(=O)NCc1ccc(C2=NOC(c3cc(Cl)cc(Cl)c3)(C(F)(F)F)C2)cc1C` (centres unmarked) [Example 25] the EC80 [1] was 0.05 µg/mL (≈ 0.106 µM).

`Cc1cc(C2=NOC(c3cc(Cl)cc(Cl)c3)(C(F)(F)F)C2)ccc1CNC(=O)CC1(C)OCCO1` (centres unmarked) [Example 26] was tested, and the EC80 [1] was 0.05 µg/mL (≈ 0.0941 µM).

In the case of `CSCC(=O)NCc1ccc(C2=NOC(c3cc(Cl)cc(Cl)c3)(C(F)(F)F)C2)cc1C` (centres unmarked) [Example 28], the EC80 [1] is reported as 0.05 µg/mL (≈ 0.102 µM).

`CC(=O)NCc1ccc(C2=NOC(c3cc(Cl)cc(Cl)c3)(C(F)(F)F)C2)cc1C` (centres unmarked) [Example 29] was tested, and the EC80 [1] was 0.05 µg/mL (≈ 0.112 µM).

Compound `Cc1cc(C2=NOC(c3cc(Cl)cc(Cl)c3)(C(F)(F)F)C2)ccc1CNC(=O)C1CCC1` (centres unmarked) [Example 30] has an EC80 [1] of 0.05 µg/mL (≈ 0.103 µM).

In the case of `Cc1cc(C2=NOC(c3cc(Cl)cc(Cl)c3)(C(F)(F)F)C2)ccc1CNC(=O)CC(C)C` (centres unmarked) [Example 31], the EC80 [1] is reported as 0.05 µg/mL (≈ 0.103 µM).

With `Cc1cc(C2=NOC(c3cc(Cl)cc(Cl)c3)(C(F)(F)F)C2)ccc1CNC(=O)CCC#N` (centres unmarked) [Example 33] the EC80 [1] was 0.05 µg/mL (≈ 0.103 µM).
